Test results from patent US9409122B2, “Gas capture process” (Commonwealth Scientific and Industrial Research Organisation, priority 2011, dated 2016).

Experiment: CO2 desorption at 90° C.
Assay type: physicochemical
Method: The test results (shown in the accompanying figures) are a comparison of four compounds within general formula (I) with 4-aminopiperidine in terms of their CO2 absorption at 40° C. (FIG. 2(a)) and CO2 desorption at 90° C. (FIG. 2(b)). These absorption experiments were carried with CO2 gas (99%).
In FIG. 3, CO2 absorption and desorption results for Compounds 1 to 4 and 4-aminopiperidine (2M and 1.7M in one case due to the material availability) were compared with MEA (4M) and piperazine (Pz) (2M). An MEA concentration of 4M was chosen in this comparison to match the total amine/nitrogen concentration of diamines (2×2M).

stability of carbamate: reasonably stable
SMILES: C1CNCCN1 [Pz, piperazine]
